Laboratory results taken from patent US8481740B2, “Imidazo[1,2 a] pyridine-6-carboxamide derivatives, their use for the treatment of colon cancer and their method of manufacture” (University of the Witwatersrand, Johannesburg, priority 2009, dated 2013).
Where two headings read alike, the source gives them in different places.

Experiments:
white blood cells = experiment: MTT cell viability assay, white blood cells; assay type: cell-based
Description: Cell viability was determined by the MTT assay after the white blood cells were exposed to the novel compounds for 24 hours at an initial concentration of 100 μM. Camptothecin was used as a positive control for cytotoxicity.

caspase 3 in HT-29 cells = experiment: Caspase 3 colorimetric assay, HT-29 lysates; assay type: cell-based, human; settings: for time at which high caspase 3 levels were observed / time of maximal caspase 3 expression: time of exposure; for initiation of apoptosis compared with camptothecin: from caspase 3 levels
Description: (§1) As it is well known that caspases play a vital role in the execution of apoptosis, the level of caspase 3 and caspase 8 enzymatic activity in the cell lysates were determined using a caspase 3 and caspase 8 colorimetric assay kit (FIGS. 3A and B). Maximal caspase 8 expression in HT-29 cells was observed within 2 hours of exposure to all the CDK compounds. […] Maximal caspase 3 expression in the HT-29 cells was observed after 8 hours of exposure to 7 and 13, and 4 hours of exposure to 12. Maximal caspase 8 expression in the HT-29 cells was observed within 2 hours of exposure to 14, 4 and 6, and within 4 hours after exposure to 3. Maximal caspase 3 expression in the HT-29 cells was observed after 2 hours of exposure to 4 and 6, and after 4 hours of exposure to 14 and 3.
(§2) The activation of caspases initiates apoptosis in mammalian cells. Caspase 3 and Caspase 8 were detected using the CPP32 and FLICE colorimetric Assay kits, respectively. The following method (obtained from Biovision research products) was performed.
(§3) The treated HT-29 and Caco-2 cells were harvested and resuspended in 50 μl of chilled cell lysis buffer and incubated on ice for 10 minutes. The cells were centrifuged for 1 minute (10000 g) and the supernatant (cytosolic extract) was transferred to a fresh tube and placed on ice. The protein concentration was assayed using the Biorad assay method. 100-200 μg protein to 50 μl cell lysis buffer was diluted for each assay. 50 μl of 2× Reaction buffer (containing 10 mM DTT) was added to each sample. 5 μl of 4 mM IETD-pNA substrate for Caspase 8 and 5 μl of 4 mM DEVD-pNA substrate for Caspase 3 was added to each sample and incubated at 37° C. for 1-2 hours. The samples were read at 405 nm in the microtiter plate reader. Time dependent studies were performed for protease activity by attaining results 2, 4, 6, 12, and 24 hours after treatment with the compounds.

caspase 8 in HT-29 cells = experiment: Caspase 8 colorimetric assay, HT-29 lysates; assay type: cell-based, human; settings: time of exposure
Description: as §1, §2
The treated HT-29 and Caco-2 cells were harvested and resuspended in 50 μl of chilled cell lysis buffer and incubated on ice for 10 minutes. The cells were centrifuged for 1 minute (10000 g) and the supernatant (cytosolic extract) was transferred to a fresh tube and placed on ice. […] The samples were read at 405 nm in the microtiter plate reader. […]

[1] = system: caspase 3 in Caco-2 cells; experiment: Caspase 3 colorimetric assay, Caco-2 lysates; assay type: cell-based, human; settings: time of exposure
Description: as §1, §2, §3

HT-29 cell line = experiment: MTT cell viability assay, HT-29; assay type: cell-based, human; settings: read-out: IC50 (molar concentration that inhibited growth by 50%), 24 hours, 5 μM to 100 μM
Description: (§4) The colon cancer cells were initially exposed to the different imidazo[1,2-a]pyridines compounds at 100 μM (final concentration in the well) at 37° C. for 24 hours using an MTT assay for cell viability quantification.
(§5) The HT-29 and Caco-2 cells were exposed to the novel imidazo[1,2-a]pyridine class of compounds according to the invention in concentrations ranging from 5 μM to 100 μM for 24 hours.
(§6) The study made use of two colonic carcinoma cell lines, namely the HT-29 and Caco-2 cell lines. The HT-29 and Caco-2 cell lines were obtained from Highveld Biological, South Africa. Both cell lines were cultured in Dulbecco's Modified Eagles Medium (DMEM) (Highveld Biological, South Africa) and supplemented with 5% heat-inactivated heat-inactivated foetal bovine serum (FBS). 1 ml 10 kU penicillin G/10 mg streptomycin sulphate (pen/strep) (Highveld Biological, South Africa) and 0.4% 100 mM sodium pyruvate per 500 ml DMEM were added after filter sterilisation.
The two colon cancer cells were counted and diluted into fresh media at concentrations of 30 000 cells/well and an aliquot of 180 μl was seeded to each well in a 96-well plate. The plates were then placed in an incubator (37° C., 5% CO2, volume fraction) and the cells were allowed to divide for a period of 24 hours.
The cells were exposed to the different classes of synthetic compounds at 100 μM (final concentration in the well) at 37° C. for 24 hours using an MTT assay for cell viability quantification. After the 24 hour incubation, the plates were removed from the incubator, and an aliquot of 50 μl 0.5% MTT (USB, USA) in 1 mM PBS (pH 7.4) was layered on the media. The plates were incubated for 2 hours at 37° C. The plates were than centrifuged at 3000 rpm (Afrox Sorvall T 6000D) for 5 minutes. Following centrifugation, the medium was very carefully aspirated. Formazan crystals were dissolved in 200 μl DMSO. The absorbance was then read at 540 nm using the Absorbance Labsystems Multiskan MS, version 2.4. The controls used in the assay consisted of i) medium alone without cells, ii) medium with or without the tested compounds and iii) medium with Camptothecin.
Compounds showing cytotoxicity at a concentration of 100 μM were further diluted to obtain an IC50 concentration. All tests were performed in triplicate.

HT-29 cells = settings: 100 μM, 24 hours
Description: (§7) The dysfunction of the mitochondria is believed to be an important step in the commitment of the cell to apoptosis. To assess whether disruption of the mitochondrial transmembrane potential (Δψ) was involved in the apoptotic action of the novel imidazo[1,2-a]pyridines, the HT-29 and Caco-2 cells were treated for 24 hours with 100 μM of the novel compounds and then analysed by flow cytometry by using the cationic fluorescent dye 5,5′,6,6′-tetrachloro-1,1′,3,3′-tetraethylbenzimidazolcarbocyanine iodide (JC-1) to measure mitochondrial membrane depolarization in intact viable cells.
(§8) When energy is released during the oxidation reactions in the mitochondrial respiratory chain, it is stored as a negative electrochemical gradient across the mitochondrial membrane. Under these situations, the mitochondrial membrane potential (Δψ) is polarized. During the early stages of apoptosis, a collapse of the Δψ which results in a depolarized Δψ, is sometimes noticed. […] The changes in Δψ have also been noticed during necrosis (depolarisation) and cell cycle arrest (hyperpolarisation). Understanding the Δψ and how it alters during apoptosis and necrosis, may assist in determining the function of the mitochondria in these and other cellular processes. […]

Caco-2 cells = experiment: JC-1 mitochondrial membrane potential flow cytometry, Caco-2; assay type: cell-based, human; settings: 100 μM, 24 hours
Description: as §7, §8

Caco-2 cell line = experiment: MTT cell viability assay, Caco-2; assay type: cell-based; settings: Homo sapiens, read-out: IC50 (molar concentration that inhibited growth by 50%), 24 hours, 5 μM to 100 μM
Description: as §4, §5
as §6, with “1 ml 10 kU penicillin G/10 mg streptomycin sulphate (pen/strep) (Highveld Biological, South Africa) and 0.4% 100 mM sodium pyruvate per 500 ml DMEM were added after filter sterilisation.” left out
The two colon cancer cells were counted and diluted into fresh media at concentrations of 30 000 cells/well and an aliquot of 180 μl was seeded to each well in a 96-well plate. […]
The cells were exposed to the different classes of synthetic compounds at 100 μM (final concentration in the well) at 37° C. for 24 hours using an MTT assay for cell viability quantification. […] The absorbance was then read at 540 nm using the Absorbance Labsystems Multiskan MS, version 2.4. […]

SMILES | White Blood Cell Viability % (white blood cells; 100 µM) [%] | time at which high caspase 3 levels were observed (caspase 3 in HT-29 cells) [h] | time of maximal caspase 3 expression (caspase 3 in HT-29 cells) [h] | time at which high caspase 3 levels were observed [1] [h] | initiation of apoptosis compared with camptothecin (caspase 3 in HT-29 cells) | White Blood Cell Viability % (white blood cells; 24 h, 100 µM) [%] | also measured
COc1ccc(-c2nc3ccc(C)cn3c2Nc2c(C)cccc2C)cc1OC [Compound 3] | 76.176 ± 0.567 | 4 | 4 | 4 |  |  | time of maximal (peak) caspase 8 expression (caspase 8 in HT-29 cells): ≤ 4 h
COc1ccc(OC)c(-c2nc3ccc(Br)cn3c2NCc2ccccc2)c1 [Compound 4] | 88.943 ± 1.996 | 2 | 2 | 2 | earlier stage than camptothecin |  | 
COc1ccc(-c2nc3ccc(Br)cn3c2Nc2c(C)cccc2C)cc1OC [Compound 6] |  | 2 | 2 | 2 | earlier stage than camptothecin | 83.762 ± 1.389 | 
NC(=O)c1ccc2nc(-c3ccc(OCc4ccccc4)cc3OCc3ccccc3)c(NC3CCCCC3)n2c1 [Compound 7] | 93.834 ± 0.271 |  | 8 |  |  |  | IC50 (HT-29 cell line): 9.2 ± 0.83 µM; cells undergoing apoptosis (JC-1) (HT-29 cells): 79.62%; healthy cells remaining after treatment (JC-1) (HT-29 cells): 20.33%
COc1ccc(-c2nc3ccc(Br)cn3c2Nc2c(C)cccc2C)c(OC)c1 [Compound 12] |  |  | 4 |  |  | 96.311 ± 5.023 | IC50 (HT-29 cell line; Homo sapiens): 22 ± 1.17 µM; cells undergoing apoptosis (JC-1), average (Caco-2 cells): 81.91%
COc1ccc(-c2nc3ccc(C)cn3c2Nc2c(C)cccc2C)c(OC)c1 [Compound 13] | 97.479 ± 1.178 |  | 8 |  |  |  | IC50 (HT-29 cell line): 10 ± 2.69 µM
COc1ccc(-c2nc3ccc(-c4ccccc4)cn3c2Nc2c(C)cccc2C)cc1OC [Compound 14] |  | 2 | 4 | 2 | earlier stage than camptothecin | 77.345 ± 1.005 | 
CC[C@@]1(O)C(=O)OCc2c1cc1n(c2=O)Cc2cc3ccccc3nc2-1 [camptothecin, reference compound] |  |  |  |  |  |  | IC50 (HT-29 cell line; Homo sapiens): 9.99 ± 1.41 µM; IC50 (Caco-2 cell line): 9.55 ± 2.21 µM; White Blood Cell Viability % (white blood cells; 100 μM, 24 hours, MTT): 33.782 ± 2.031%
